Experimental data published in patent US11103467B2, “Method for treating depression” (DEVELCO PHARMA SCHWEIZ AG, priority 2014, dated 2021).

Settings: both, human, serum, iv, 5 mg

CNC1(c2ccccc2Cl)CCCCC1=O (racemic) [(±)-ketamine, 2-(2-chlorophenyl)-2-(methylamino)cyclohexan-1-one]
AUC(0-inf): 59.9 ± 13.2 ng·h/mL | Cmax: 33.7 ± 9.74 ng/mL | half-life: 6.99 ± 5.22 h
